Results reported in ChEMBL document CHEMBL5465560, “Selectivity Literature for EUbOPEN Chemogenomic Library” (2024).
Values belong to the compound of their own block, whether it stands above or below them.

How the values were obtained:
[1] = molecular target: MAP kinase-interacting serine/threonine-protein kinase 2 (Homo sapiens, UniProt Q9HBH9); conditions: at 10 µM
[2] = molecular target: Cyclin-dependent kinase 2 (Homo sapiens, UniProt P24941); assay: Selectivity interaction (ActivX KiNativ screen (ex vivo kinase selectivity in human PBMCs)) EUB0001619a CDK2; format: cell-based; conditions: PBMC, at 1 µM
[3] = molecular target: T1, Cyclin-dependent kinase 11A (Homo sapiens) (UniProt Q9UQ88); assay: Selectivity interaction (KinomeScan (DiscoverX)) EUB0001619a CDK11A; conditions: at 1 µM
T1 sequence (whole entry): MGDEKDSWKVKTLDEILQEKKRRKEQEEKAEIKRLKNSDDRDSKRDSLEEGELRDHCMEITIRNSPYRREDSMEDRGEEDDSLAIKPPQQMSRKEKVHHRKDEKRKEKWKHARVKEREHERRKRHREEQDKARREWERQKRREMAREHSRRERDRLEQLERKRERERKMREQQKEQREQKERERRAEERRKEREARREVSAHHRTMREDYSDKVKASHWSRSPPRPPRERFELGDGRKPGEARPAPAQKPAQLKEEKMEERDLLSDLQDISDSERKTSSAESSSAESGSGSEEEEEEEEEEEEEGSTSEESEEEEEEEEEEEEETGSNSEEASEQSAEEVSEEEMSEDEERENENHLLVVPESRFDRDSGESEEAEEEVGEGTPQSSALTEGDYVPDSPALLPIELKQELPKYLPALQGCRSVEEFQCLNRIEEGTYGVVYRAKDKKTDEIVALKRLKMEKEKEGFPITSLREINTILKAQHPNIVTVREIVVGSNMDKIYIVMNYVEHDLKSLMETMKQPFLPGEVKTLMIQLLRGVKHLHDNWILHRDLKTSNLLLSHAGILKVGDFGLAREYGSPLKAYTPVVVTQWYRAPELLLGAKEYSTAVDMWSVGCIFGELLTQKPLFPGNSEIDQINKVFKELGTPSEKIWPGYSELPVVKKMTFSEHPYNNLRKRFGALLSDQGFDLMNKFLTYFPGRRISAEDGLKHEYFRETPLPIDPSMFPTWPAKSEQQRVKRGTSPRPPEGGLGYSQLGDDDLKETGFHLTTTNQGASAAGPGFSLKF

[4] = molecular target: T2, Rhodopsin kinase GRK1 (Homo sapiens) (UniProt Q15835); assay: Selectivity interaction (KinomeScan (DiscoverX)) EUB0000045b GRK1
T2 sequence (whole entry): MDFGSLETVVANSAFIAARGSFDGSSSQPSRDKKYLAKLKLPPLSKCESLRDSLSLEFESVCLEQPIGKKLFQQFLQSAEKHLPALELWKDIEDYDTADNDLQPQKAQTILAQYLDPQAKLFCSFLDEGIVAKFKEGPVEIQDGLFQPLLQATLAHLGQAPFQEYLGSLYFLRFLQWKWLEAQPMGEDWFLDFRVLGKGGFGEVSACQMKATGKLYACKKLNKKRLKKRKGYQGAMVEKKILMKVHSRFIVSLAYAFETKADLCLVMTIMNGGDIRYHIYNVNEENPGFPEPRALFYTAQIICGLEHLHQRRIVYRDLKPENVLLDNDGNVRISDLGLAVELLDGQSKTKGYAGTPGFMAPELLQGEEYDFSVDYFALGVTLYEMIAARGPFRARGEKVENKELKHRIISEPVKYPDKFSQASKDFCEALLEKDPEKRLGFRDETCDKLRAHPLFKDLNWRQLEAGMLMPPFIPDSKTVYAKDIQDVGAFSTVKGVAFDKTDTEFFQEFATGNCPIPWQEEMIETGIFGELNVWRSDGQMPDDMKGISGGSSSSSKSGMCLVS

[5] = molecular target: T3, MAP/microtubule affinity-regulating kinase 4 (Homo sapiens) (UniProt Q96L34); assay: Selectivity interaction (Kinase panel (Invitrogen)) EUB0000639a MARK4; conditions: at 200 nM
T3 sequence (whole entry): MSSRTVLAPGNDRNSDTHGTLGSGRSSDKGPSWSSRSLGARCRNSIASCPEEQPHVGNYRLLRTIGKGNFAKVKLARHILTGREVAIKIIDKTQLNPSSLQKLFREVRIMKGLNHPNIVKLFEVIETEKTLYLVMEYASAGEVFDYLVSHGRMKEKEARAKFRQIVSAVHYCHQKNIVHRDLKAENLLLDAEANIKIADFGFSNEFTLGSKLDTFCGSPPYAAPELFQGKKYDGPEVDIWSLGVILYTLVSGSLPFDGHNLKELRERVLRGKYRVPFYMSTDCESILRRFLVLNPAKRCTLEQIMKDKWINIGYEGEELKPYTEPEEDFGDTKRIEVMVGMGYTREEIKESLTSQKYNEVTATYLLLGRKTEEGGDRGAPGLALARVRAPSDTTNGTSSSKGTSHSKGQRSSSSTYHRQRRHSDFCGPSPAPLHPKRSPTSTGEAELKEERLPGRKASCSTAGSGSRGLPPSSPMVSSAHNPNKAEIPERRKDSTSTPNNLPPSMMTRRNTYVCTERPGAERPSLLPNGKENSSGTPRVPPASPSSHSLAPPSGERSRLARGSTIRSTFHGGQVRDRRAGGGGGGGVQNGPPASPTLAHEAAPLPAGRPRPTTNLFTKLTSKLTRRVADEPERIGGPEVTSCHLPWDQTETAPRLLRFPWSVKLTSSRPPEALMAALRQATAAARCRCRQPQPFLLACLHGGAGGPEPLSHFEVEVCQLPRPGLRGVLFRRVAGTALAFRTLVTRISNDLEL

[6] = molecular target: Mitogen-activated protein kinase kinase kinase 8 (Homo sapiens, UniProt P41279); assay: Selectivity interaction (ProQinase) EUB0000171b MAP3K8
Chain of Mitogen-activated protein kinase kinase kinase 8 (P41279 whole entry): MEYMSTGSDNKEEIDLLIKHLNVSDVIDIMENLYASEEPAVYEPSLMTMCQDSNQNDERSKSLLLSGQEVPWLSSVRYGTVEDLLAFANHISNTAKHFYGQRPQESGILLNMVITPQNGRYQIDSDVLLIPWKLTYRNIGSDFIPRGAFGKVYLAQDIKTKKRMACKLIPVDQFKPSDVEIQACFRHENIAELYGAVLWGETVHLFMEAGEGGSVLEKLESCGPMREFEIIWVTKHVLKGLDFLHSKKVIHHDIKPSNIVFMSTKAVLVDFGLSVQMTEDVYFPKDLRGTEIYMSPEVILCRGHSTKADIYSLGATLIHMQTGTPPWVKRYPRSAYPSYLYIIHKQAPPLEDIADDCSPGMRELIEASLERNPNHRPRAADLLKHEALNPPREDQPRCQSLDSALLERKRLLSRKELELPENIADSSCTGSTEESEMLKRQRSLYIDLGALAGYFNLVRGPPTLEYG

Chain of MAP kinase-interacting serine/threonine-protein kinase 2 (Q9HBH9 whole entry, looked up): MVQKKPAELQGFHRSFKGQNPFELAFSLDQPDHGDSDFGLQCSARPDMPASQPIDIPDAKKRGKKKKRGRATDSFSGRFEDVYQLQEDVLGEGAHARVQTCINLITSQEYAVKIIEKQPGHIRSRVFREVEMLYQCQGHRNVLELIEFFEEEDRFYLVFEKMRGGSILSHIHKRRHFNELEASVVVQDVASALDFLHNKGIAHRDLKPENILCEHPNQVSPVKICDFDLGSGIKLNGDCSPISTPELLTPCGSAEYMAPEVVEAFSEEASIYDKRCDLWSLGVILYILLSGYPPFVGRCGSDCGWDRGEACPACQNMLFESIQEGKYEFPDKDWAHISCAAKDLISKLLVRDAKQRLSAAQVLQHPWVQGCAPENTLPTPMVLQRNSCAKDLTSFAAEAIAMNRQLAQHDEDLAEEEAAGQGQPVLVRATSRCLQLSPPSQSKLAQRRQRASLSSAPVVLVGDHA

% of control [1]: 100%
Structure (SMILES): CCN(CC)CCCCNc1ncc2cc(-c3cc(OC)cc(OC)c3)c(NC(=O)NC(C)(C)C)nc2n1

Structure (SMILES): N#Cc1cccc(-c2c[nH]c3ncnc(N4CCOCC4)c23)c1
% of inhibition [2]: 8%
% of control [3]: 48%

Structure (SMILES): C=CC(=O)Nc1cc(-n2c(=O)ccc3cnc4ccc(-c5ccc(NS(C)(=O)=O)cc5)cc4c32)ccc1C
% of control ([4]; at 1 µM): 100%
% of control ([4]; at 10 µM): 99%

% of inhibition [5]: 14%
Structure (SMILES): CC[C@@H]1[C@H](F)C(=O)N[C@@H]1COc1nccc2cc(C(N)=O)c(OC)cc12 [ZIMLOVISERTIB]

% of control ([6]; at 1 µM): 95%
% of control ([6]; at 5 µM): 103%
Structure (SMILES): C=CC(=O)Nc1cccc(C(=O)Nc2ccc(Nc3cc(-c4[nH]c(SC)nc4C)ccn3)cc2)c1
